From US7229985B2, “Amorphous substance of tricyclic triazolobenzazepine derivative” (Meiji Seika Kaisha, Ltd., priority 2001, dated 2007)
In brackets after ≈: the same amount, converted by molar mass.

Columns and labels:
[1] = Dissoluvability Test (1): solubility in water or 1 wt % aqueous methylcellulose solution at 37° C.; assay type: physicochemical
Protocol: Water or a 1 wt % aqueous methylcellulose solution was provided as a test liquid, and solubility of various samples in the test liquid was examined. Each sample in an amount of about 100 mg in terms of compound A was added to 500 mL of the test liquid kept at 37° C., and the mixture was stirred with a paddle at 200 rpm. Sampling was carried out at predetermined time intervals, and the samples were filtered through a membrane filter (Sumplep LCR 13-LG, manufactured by Millipore Corporation). The concentration of compound A in each of the filtrates was analyzed by HPLC.
In Test Example 2, HPLC was carried out under the following measuring conditions.
Detector: Ultraviolet absorptiometer (measuring wavelength: 240 nm)
Column: Inertsil ODS 2 4.6×250 mm in which a stainless tube having an inner diameter of 4.6 mm and a length of 25 cm was packed with a 5-μm octadecylsilyl silica gel for liquid chromatography.
Column temp.: Around 40° C.
Mobile phase: 0.1 wt % ammonium acetate:methanol (45:55)

[2] = Solubility in methylene chloride; assay type: physicochemical
[3] = Solubility in glycerin, propylene glycol, Macrogol 400 and the like; assay type: physicochemical
[4] = Oral absorption of pulverized crystal; assay type: in vivo; conditions: orally administered to dogs
Protocol: In addition, an experiment in which a pulverized crystal of crystalline compound A is prepared according to the description of Japanese Patent Laid-Open No. 185013/1987 disclosing a drug, which has been rendered easily absorbable by pulverizing was carried out. The treated drug is orally administered to experimental animals such as dogs.

[5] = Absorption Test: oral administration, plasma compound B concentration; assay type: in vivo, beagles
Protocol: The sample produced in Comparative Example 1 or Example 1 was suspended in a 1 wt % aqueous methylcellulose solution. The suspension was administered orally to beagles (n=6) which had been subjected to fasting overnight. The difference in absorption among the samples was evaluated by comparing the area under the plasma drug concentration-time curve (AUC).
The plasma drug concentration in the collected blood was quantitatively determined according roughly to the following method.
Blood (about 0.7 mL) collected from the cephalic vein was centrifuged (4° C., about 9000×g, 10 min) in the presence of heparin to obtain plasma. Methanol (400 μL) and an internal standard substance solution (sodium salt of 7-methyl-4(5H),10-dioxo-2H-1,2,3-triazolo[4,5-c][1]benzazepine, 100 ng/mL, 100 μL) were added to the plasma (100 μL), and the mixture was stirred and centrifuged (4° C., about 9000×g, 10 min).
The supernatant was evaporated to dryness at room temperature under a nitrogen gas stream, and 150 μL of a mixed solution composed of a 10 mmol/L phosphate buffer (pH 7.0) and a methanol (8:2) was added to the residue for redissolution. The solution was then filtered by a centrifugal filter (Centricut Ultra-Mmini (KURABO INDUSTRIES LTD.), 4° C., about 9000×g, 10 min), and the filtrate was analyzed as a sample by HPLC. […]
Fluorescence detection wavelength: Ex 270 nm, Em 466 nm (GAIN=100, response=standard) […]

[6] = test liquid 1 wt % aqueous methylcellulose solution, 37° C. (FIG. 3)
[7] = test liquid water, 37° C., about 100 mg in 500 mL, paddle 200 rpm (FIG. 2), level reached

concentration of dissolution [1, 6]	concentration of dissolution [1, 7]	solubility in methylene chloride [2]	improvement in absorption [4]	solubility ([1]; 1 wt % aqueous methylcellulose solution, aqueous with cosolvent or surfactant or cyclodextrin, thermodynamic from solid, in a 1 wt % methylcellulose solution at 37° C.) [µg/mL]	time for which concentration of dissolution was maintained ([1]; test liquid 1 wt % aqueous methylcellulose solution, 37° C.) [h]	concentration of dissolution after lowering ([1]; test liquid water, 37° C., value to which the concentration then lowered (FIG. 2))	plasma compound B concentration over time versus crystalline compound of Comparative Example 1 ([5]; beagles, dose one-eighth of the dose of the crystalline compound)	plasma compound B concentration versus crystalline compound of Comparative Example 1 ([5]; suspension in 1 wt % aqueous methylcellulose, fasted beagles (FIG. 5))	Structure (SMILES)	solubility in glycerin, propylene glycol, Macrogol 400 and the like [3]
not more than 1 μg/mL	not more than 1 μg/mL	about 1 % by weight	not more than expected						COc1cc2[nH]c(=O)c3nn(C(OC(=O)OC(C)C)C(C)C)nc3c(=O)c2cc1OC (stereo not drawn) [Comparative Example 1, 2-(1-Isopropoxycarbonyloxy-2-methylpropyl)-7,8-dimethoxy-4(5H), 10-dioxo-2H-1,2,3-triazolo[4,5-c][1]benzazepine]	not on such a level that can make crystalline compound A pharmaceutically usable
not less than 18 μg/mL	about 5 μg/mL			15 to 20 (≈ 34.7 to 46.2 µM)	4	about 3 μg/mL	much higher	significantly higher	COc1cc2[nH]c(=O)c3nn(C(OC(=O)OC(C)C)C(C)C)nc3c(=O)c2cc1OC (stereo not drawn) [Example 1, 2-(1-isopropoxycarbonyloxy-2-methylpropyl)-7,8-dimethoxy-4(5H), 10-dioxo-2H-1,2,3-triazolo[4,5-c][1]benzazepine]	
